Assay results: US10889628B2, “Optogenetic inhibition of overactive neuronal activity” (Emory University, priority 2013, dated 2021)

Legend:
cortical neuron cultures = assay: Inhibition of evoked activity (action potential trains evoked by current injection) in cortical neuron cultures; type: cell-based; details: FIG. 5
Protocol: Trains of action potentials were evoked by 30 pA current injections.
Simultaneous patch clamp studies are conducted to determine cellular responses in (1) cells expressing both opsin and luciferase (i.e. both components in cis) and (2) cells expressing […] (i.e. both components in trans). As an alternative to co-infection, one can also deliver luciferase and inhibitory opsin together as a fusion protein. Various molecular strategies can also be employed (such as adding dimerizing or transmembrane domains) to facilitate co-localization of the luciferase and inhibitory opsin to the cell membrane.

neuron = assay: Inhibition of evoked spikes in a neuron expressing eNpHR3.0-Nanolantern; type: cell-based; details: CTZ added

Row | Molecule | effect on firing rate in control (uninfected) neurons (cortical neuron cultures) | luminescence signal during inhibition of evoked activity (neuron; FIG. 8 (top)) | evoked action potentials after CTZ (neuron; sub-threshold depolarizing current injection, FIG. 8)
1 | Oc1ccc(Cc2nc3c(Cc4ccccc4)nc(-c4ccc(O)cc4)cn3c2O)cc1 [CTZ, Coelenterazine, reference compound] | did not have any significant effect |  | 
2 | eNpHR3.0-Nanolantern: Fusion cassette of enhanced halorhodopsin eNpHR3.0 and Nanolantern, amino acid sequence SEQ ID NO: 11 |  | increase in luminescence signal | completely attenuate evoked action potentials
